Measured values published in ChEMBL document CHEMBL1137401, “Structure-activity relationship studies on a novel series of (S)-2beta-substituted 3alpha-[bis(4-fluoro- or 4-chlorophenyl)methoxy]tropane analogues for in vivo investigation” (J Med Chem, 2006).
pIC50, pKi: −log10 of the molar value. The source made the active and inactive calls. The rule behind the calls is not given here.

target: T1, Sodium-dependent dopamine transporter (Rattus norvegicus, UniProt P23977); assay: biochemical; format: tissue-based, Sprague-Dawley, Brain
T1 sequence (P23977 whole entry): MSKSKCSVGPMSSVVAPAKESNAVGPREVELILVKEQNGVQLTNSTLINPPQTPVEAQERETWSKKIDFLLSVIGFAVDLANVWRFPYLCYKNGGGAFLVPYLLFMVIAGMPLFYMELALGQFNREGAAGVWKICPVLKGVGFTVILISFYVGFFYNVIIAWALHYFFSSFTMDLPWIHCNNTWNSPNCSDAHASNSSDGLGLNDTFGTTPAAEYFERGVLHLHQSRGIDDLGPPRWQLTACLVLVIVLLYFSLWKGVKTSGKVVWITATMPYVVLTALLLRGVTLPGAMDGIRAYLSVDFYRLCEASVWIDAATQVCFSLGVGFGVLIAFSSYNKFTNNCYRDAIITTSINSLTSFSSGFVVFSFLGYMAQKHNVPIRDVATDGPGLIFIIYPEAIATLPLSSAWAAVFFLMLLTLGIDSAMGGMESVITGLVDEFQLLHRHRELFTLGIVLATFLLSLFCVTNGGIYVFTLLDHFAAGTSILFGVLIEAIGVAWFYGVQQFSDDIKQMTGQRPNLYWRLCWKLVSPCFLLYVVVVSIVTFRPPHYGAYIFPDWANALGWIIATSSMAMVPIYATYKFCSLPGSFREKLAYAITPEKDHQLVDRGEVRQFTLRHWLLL
Description: Displacement of [3H]WIN-35428 from DAT in Sprague-Dawley rat brain

SMILES | pKi
CCOC(=O)[C@@H]1C2CCC(C[C@@H]1OC(c1ccc(Cl)cc1)c1ccc(Cl)cc1)N2C (stereo partly specified) | 7.84
CN1C2CCC1[C@@H](CO)[C@@H](OC(c1ccc(F)cc1)c1ccc(F)cc1)C2 (stereo partly specified) | 8.47
COC(=O)[C@@H]1C2CCC(C[C@@H]1OC(c1ccc(Cl)cc1)c1ccc(Cl)cc1)N2C (stereo partly specified) | 7.90

target: T1, Sodium-dependent dopamine transporter; assay: Inhibition of [3H]dopamine uptake at DAT in Sprague-Dawley rat brain

SMILES | pIC50
CCOC(=O)[C@@H]1C2CCC(C[C@@H]1OC(c1ccc(Cl)cc1)c1ccc(Cl)cc1)N2C (stereo partly specified) | 8.82
COC(=O)[C@@H]1C2CCC(C[C@@H]1OC(c1ccc(Cl)cc1)c1ccc(Cl)cc1)N2C (stereo partly specified) | 8.61

target: Sodium-dependent serotonin transporter (Rattus norvegicus, UniProt P31652); assay: Displacement of [3H]citalopram from SERT in Sprague-Dawley rat brain; format: tissue-based
Sequence (P31652 whole entry): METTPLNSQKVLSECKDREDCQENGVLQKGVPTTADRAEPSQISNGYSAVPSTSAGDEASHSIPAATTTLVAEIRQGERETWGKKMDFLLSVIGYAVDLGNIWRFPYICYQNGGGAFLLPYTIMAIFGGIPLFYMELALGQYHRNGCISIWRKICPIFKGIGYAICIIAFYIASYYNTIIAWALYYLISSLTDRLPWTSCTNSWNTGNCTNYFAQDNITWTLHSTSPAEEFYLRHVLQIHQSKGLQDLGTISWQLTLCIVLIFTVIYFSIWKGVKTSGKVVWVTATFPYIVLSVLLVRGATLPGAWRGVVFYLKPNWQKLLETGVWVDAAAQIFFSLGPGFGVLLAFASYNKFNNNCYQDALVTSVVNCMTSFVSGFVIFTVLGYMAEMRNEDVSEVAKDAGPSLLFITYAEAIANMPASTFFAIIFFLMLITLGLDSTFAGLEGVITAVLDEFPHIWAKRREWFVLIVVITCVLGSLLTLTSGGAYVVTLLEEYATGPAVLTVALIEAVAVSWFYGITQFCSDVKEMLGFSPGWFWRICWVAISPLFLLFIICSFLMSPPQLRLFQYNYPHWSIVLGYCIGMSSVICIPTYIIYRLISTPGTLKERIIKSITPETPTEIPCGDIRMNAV

SMILES | pKi
CCOC(=O)[C@@H]1C2CCC(C[C@@H]1OC(c1ccc(Cl)cc1)c1ccc(Cl)cc1)N2C (stereo partly specified) | 5.81
CN1C2CCC1[C@@H](COC(=O)CCCc1ccc([N+](=O)[O-])cc1)[C@@H](OC(c1ccc(F)cc1)c1ccc(F)cc1)C2 (stereo partly specified) | 5.42
COC(=O)[C@@H]1C2CCC(C[C@@H]1OC(c1ccc(Cl)cc1)c1ccc(Cl)cc1)N2C (stereo partly specified) | 6.28

target: Norepinephrine transporter (Rattus norvegicus, UniProt Q9WTR4); assay: Displacement of [3H]nisoxetine from NET in Sprague-Dawley rat brain; format: tissue-based
Sequence (Q9WTR4 whole entry): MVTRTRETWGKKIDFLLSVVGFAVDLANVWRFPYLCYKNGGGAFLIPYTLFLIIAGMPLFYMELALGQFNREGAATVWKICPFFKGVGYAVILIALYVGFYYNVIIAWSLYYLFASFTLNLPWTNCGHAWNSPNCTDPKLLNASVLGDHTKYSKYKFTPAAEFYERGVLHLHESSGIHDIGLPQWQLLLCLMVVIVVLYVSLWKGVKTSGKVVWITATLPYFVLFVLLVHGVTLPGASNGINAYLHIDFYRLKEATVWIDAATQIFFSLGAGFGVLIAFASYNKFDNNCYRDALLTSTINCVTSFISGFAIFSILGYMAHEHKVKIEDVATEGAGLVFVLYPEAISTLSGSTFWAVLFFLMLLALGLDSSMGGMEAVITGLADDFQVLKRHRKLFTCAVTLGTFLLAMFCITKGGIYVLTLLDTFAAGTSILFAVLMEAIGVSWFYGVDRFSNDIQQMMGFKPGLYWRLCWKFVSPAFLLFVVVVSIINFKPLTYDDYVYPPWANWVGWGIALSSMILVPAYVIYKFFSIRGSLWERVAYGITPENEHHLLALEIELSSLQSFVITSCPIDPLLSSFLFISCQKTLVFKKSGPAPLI

SMILES | pKi
CCCCN1C2CCC1[C@@H](C(=O)OCC)[C@@H](OC(c1ccc(F)cc1)c1ccc(F)cc1)C2 (stereo partly specified) | 6.24
CCOC(=O)[C@@H]1C2CCC(C[C@@H]1OC(c1ccc(Cl)cc1)c1ccc(Cl)cc1)N2C (stereo partly specified) | 5.47
COC(=O)CC[C@@H]1C2CCC(C[C@@H]1OC(c1ccc(F)cc1)c1ccc(F)cc1)N2C (stereo partly specified) | 6.34
COC(=O)/C=C/[C@@H]1C2CCC(C[C@@H]1OC(c1ccc(F)cc1)c1ccc(F)cc1)N2C (stereo partly specified) | 6.57
CN1C2CCC1[C@@H](CO)[C@@H](OC(c1ccc(F)cc1)c1ccc(F)cc1)C2 (stereo partly specified) | 6.01
CN1C2CCC1[C@@H](COC(=O)CCCc1ccc([N+](=O)[O-])cc1)[C@@H](OC(c1ccc(F)cc1)c1ccc(F)cc1)C2 (stereo partly specified) | 5.67
CN1C2CCC1[C@@H](COC(=O)CCCc1ccc(N)cc1)[C@@H](OC(c1ccc(F)cc1)c1ccc(F)cc1)C2 (stereo partly specified) | 6.36
C=CCN1C2CCC1[C@@H](C(=O)OCC)[C@@H](OC(c1ccc(F)cc1)c1ccc(F)cc1)C2 (stereo partly specified) | 6.03
C=C[C@@H]1C2CCC(C[C@@H]1OC(c1ccc(F)cc1)c1ccc(F)cc1)N2C (stereo partly specified) | 6.33
CCOC(=O)[C@@H]1C2CCC(C[C@@H]1OC(c1ccc(F)cc1)c1ccc(F)cc1)N2 (stereo partly specified) | 6.25
COC(=O)[C@@H]1C2CCC(C[C@@H]1OC(c1ccc(Cl)cc1)c1ccc(Cl)cc1)N2C (stereo partly specified) | 5.67

target: T2, Muscarinic acetylcholine receptor M1 (Rattus norvegicus, UniProt P08482); assay: Displacement of [3H]pirenzepine from M1 receptor in Sprague-Dawley rat brain
T2 sequence (P08482 whole entry): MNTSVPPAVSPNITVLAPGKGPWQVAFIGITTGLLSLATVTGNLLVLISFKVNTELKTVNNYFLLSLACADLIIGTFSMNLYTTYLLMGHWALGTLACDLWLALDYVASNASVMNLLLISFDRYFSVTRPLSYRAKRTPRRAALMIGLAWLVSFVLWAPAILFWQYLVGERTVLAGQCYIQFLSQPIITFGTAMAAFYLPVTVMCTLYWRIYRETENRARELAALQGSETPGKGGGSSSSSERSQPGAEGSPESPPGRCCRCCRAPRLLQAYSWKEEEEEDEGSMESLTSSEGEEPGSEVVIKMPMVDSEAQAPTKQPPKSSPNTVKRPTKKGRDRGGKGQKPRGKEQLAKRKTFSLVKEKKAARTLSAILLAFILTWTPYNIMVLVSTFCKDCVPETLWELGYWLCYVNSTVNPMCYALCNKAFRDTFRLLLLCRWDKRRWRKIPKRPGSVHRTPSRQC

SMILES | pKi
CCOC(=O)[C@@H]1C2CCC(C[C@@H]1OC(c1ccc(Cl)cc1)c1ccc(Cl)cc1)N2C (stereo partly specified) | 5.51
CN1C2CCC1[C@@H](COC(=O)CCCc1ccc([N+](=O)[O-])cc1)[C@@H](OC(c1ccc(F)cc1)c1ccc(F)cc1)C2 (stereo partly specified) | 6.15
COC(=O)[C@@H]1C2CCC(C[C@@H]1OC(c1ccc(Cl)cc1)c1ccc(Cl)cc1)N2C (stereo partly specified) | 6.42

species: Rattus norvegicus; assay: Selectivity for Sprague-Dawley rat DAT over rat M1 receptor

SMILES | Ratio Ki
CCCCN1C2CCC1[C@@H](C(=O)OCC)[C@@H](OC(c1ccc(F)cc1)c1ccc(F)cc1)C2 (stereo partly specified) | 391
COC(=O)CC[C@@H]1C2CCC(C[C@@H]1OC(c1ccc(F)cc1)c1ccc(F)cc1)N2C (stereo partly specified) | 832
COC(=O)/C=C/[C@@H]1C2CCC(C[C@@H]1OC(c1ccc(F)cc1)c1ccc(F)cc1)N2C (stereo partly specified) | 294
CN1C2CCC1[C@@H](CO)[C@@H](OC(c1ccc(F)cc1)c1ccc(F)cc1)C2 (stereo partly specified) | 31
CN1C2CCC1[C@@H](COC(=O)CCCc1ccc([N+](=O)[O-])cc1)[C@@H](OC(c1ccc(F)cc1)c1ccc(F)cc1)C2 (stereo partly specified) | 18
CN1C2CCC1[C@@H](COC(=O)CCCc1ccc(N)cc1)[C@@H](OC(c1ccc(F)cc1)c1ccc(F)cc1)C2 (stereo partly specified) | 12
C=CCN1C2CCC1[C@@H](C(=O)OCC)[C@@H](OC(c1ccc(F)cc1)c1ccc(F)cc1)C2 (stereo partly specified) | 1040
CCOC(=O)[C@@H]1C2CCC(C[C@@H]1OC(c1ccc(F)cc1)c1ccc(F)cc1)N2C (stereo partly specified) | 275
C=C[C@@H]1C2CCC(C[C@@H]1OC(c1ccc(F)cc1)c1ccc(F)cc1)N2C (stereo partly specified) | 90
CCOC(=O)[C@@H]1C2CCC(C[C@@H]1OC(c1ccc(F)cc1)c1ccc(F)cc1)N2 (stereo partly specified) | 1930
COC(=O)[C@@H]1C2CCC(C[C@@H]1OC(c1ccc(F)cc1)c1ccc(F)cc1)N2C (stereo partly specified) | 45
COC(=O)[C@@H]1C2CCC(C[C@@H]1OC(c1ccc(Cl)cc1)c1ccc(Cl)cc1)N2C (stereo partly specified) | 30

species: Rattus norvegicus; assay: Drug discriminative activity in Sprague-Dawley rat measured as response on cocaine-appropriate lever; format: functional

SMILES | Activity
COC(=O)C1C(OC(c2ccc(Cl)cc2)c2ccc(Cl)cc2)CC2CCC1N2C (racemic) | inactive
CN1C2CCC1CC(OC(c1ccc(F)cc1)c1ccc(F)cc1)C2 (stereo unspecified) [DIFLUOROBENZTROPINE] | 65%
